Experimental data as given in PMC7948978, “MpeV is a lyase isomerase that ligates a doubly linked phycourobilin on the β-subunit of phycoerythrin I and II in marine Synechococcus” (The Journal of Biological Chemistry, 2020).

Assays:
[1] = molecular target: T1, CpeB (beta-subunit of phycoerythrin I) (Synechococcus sp. RS9916, UniProt Q05Q60, C50A); assay: LC-MS-MS of trypsin-digested purified protein after co-expression with lyases in E. coli; type: binding
T1 construct: with C-phycoerythrin class I alpha chain (phycoerythrin I alpha subunit)
From the text: LC-MS-MS of trypsin-digested purified protein after co-expression with lyases in E. coli on CpeB (beta-subunit of phycoerythrin I) | no peptide ions from the C50A mutant coexpressions modified with PUB at the C61 position

[2] = molecular target: T2, MpeB (beta-subunit of phycoerythrin II) (Synechococcus sp. RS9916, UniProt Q05Q49); assay: as above; type: binding; details: covalent
T2 construct: with C-phycoerythrin class II alpha chain (phycoerythrin II alpha subunit)
From the text: LC-MS-MS of trypsin-digested purified protein after co-expression with lyases in E. coli on MpeB (beta-subunit of phycoerythrin II)

[3] = molecular target: T3, CpeB (beta-subunit of phycoerythrin I) (Synechococcus sp. RS9916, UniProt Q05Q60, C61A); assay: as above; type: binding; details: covalent, same co-expression
T3 construct: with C-phycoerythrin class I alpha chain (phycoerythrin I alpha subunit)
From the text: (§1) LC-MS-MS of trypsin-digested purified protein after co-expression with lyases in E. coli on CpeB (beta-subunit of phycoerythrin I)

[4] = molecular target: T4, CpeB (beta-subunit of phycoerythrin I) (Synechococcus sp. RS9916, UniProt Q05Q60); assay: as above; type: binding; details: covalent
T4 construct: with C-phycoerythrin class I alpha chain (phycoerythrin I alpha subunit)
From the text: as §1

[5] = molecular target: T5, CpeB (beta-subunit of phycoerythrin I) (Synechococcus sp. RS9916, UniProt Q05Q60, C50A/C61A); assay: zinc-enhanced bilin fluorescence of gel bands over anti-CpeB western blot; type: binding; details: covalent, site C82, attached by CpeS, co-expressed with CpeA, MpeV, CpeZ and bilin synthesis genes
T5 construct: with C-phycoerythrin class I alpha chain (phycoerythrin I alpha subunit)
From the text: zinc-enhanced bilin fluorescence of gel bands over anti-CpeB western blot on CpeB (beta-subunit of phycoerythrin I)

[6] = molecular target: T6, CpeS (Synechococcus sp. RS9916, UniProt Q05Q42); assay: co-expression in E. coli; absorbance, zinc-enhanced fluorescence and LC-MS-MS of purified CpeB; type: cell-based; details: protein co-substrate CpeB or MpeB, site C82; CpeZ enhances
T6 construct: recombinant, pCpeS plasmid; co-expressed in E. coli with bilin synthesis genes and phycoerythrin subunits; CpeS itself not assayed purified
T6 sequence (Q05Q42 1-178): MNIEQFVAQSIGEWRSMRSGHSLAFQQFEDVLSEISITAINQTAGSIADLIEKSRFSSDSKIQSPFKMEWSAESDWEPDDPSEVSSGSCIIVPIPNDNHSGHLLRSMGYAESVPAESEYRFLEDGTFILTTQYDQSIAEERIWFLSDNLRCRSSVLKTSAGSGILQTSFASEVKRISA

[7] = doubly linked at C50 and C61, attached by MpeV, same co-expression

Bilin added ^a ([1]; covalent attachment at C61 tested, not detected, same co-expression) [%]	β-50, 61 [2, 7] [%]	Bilin added ^a ([3]; single linkage by A ring at C50, attached by MpeV) [%]	β-50, 61 ^b / β-159 [4, 7] [%]	Percentage chromophorylation (% ± SD) ^b [5]	Bilin added ^a ([1]; covalent, site C82, attached by CpeS, co-expressed with CpeA, CpeS, MpeV, CpeZ and bilin synthesis genes) [%]	β-165 / β-82 ([2]; site C82, attached by CpeS, co-expressed with MpeA, MpeV, CpeZ and bilin synthesis genes) [%]	Bilin added ^a ([3]; site C82, attached by CpeS) [%]	β-82 ^b / α-140 ([4]; site C82, attached by CpeS, co-expressed with CpeA, MpeV, CpeZ and bilin synthesis genes) [%]	SMILES	co-expression in E. coli; absorbance, zinc-enhanced fluorescence and LC-MS-MS of [6]
0	84.7	7.6	29.4						C=CC1=C(C)[C@@H](CC2=N/C(=C\c3[nH]c(C[C@H]4NC(=O)C(C)=C4C=C)c(C)c3CCC(=O)O)C(CCC(=O)O)=C2C)NC1=O [PUB, phycourobilin]	
				89.0 ± 12.3 % of WT	76.3	99.7	100	98.2	C=CC1=C(C)C(CC2=NC(=Cc3[nH]c(C=C4NC(=O)C(C)C4=CC)c(C)c3CCC(=O)O)C(CCC(=O)O)=C2C)NC1=O (stereo not shown) [PEB, phycoerythrobilin]	The lyase CpeS is able to attach PEB to CpeB
